Among the data in BindingDB's records for doi:10.1021/acschembio.7b00041 (Bc Cancer Agency, 2017) are IC50 values, retold here.

Assay in all cases: ATPase enzyme assay
The target of assay [1] is U5 small nuclear ribonucleoprotein 200 kDa helicase (Homo sapiens, UniProt O75643). The method, then:
(§1) Inhibitory activity was assessed under the following conditions: 350 uM ATP/1.5 ug mL−1 RNA indicated by black; 35 uM ATP/1.5 ug mL−1 RNA indicated by red; 3.5 uM ATP/1.5 ug mL−1 RNA indicated by blue; 35 uM ATP/60 ug mL−1 RNA indicated by green (n = 4, mean +/- standard deviation).

Assay [2] has as its target Eukaryotic initiation factor 4A-III (Homo sapiens, UniProt P38919). The method, then:
as §1

The target of assay [3] is T1, ATP-dependent RNA helicase DHX29 (Homo sapiens, UniProt Q7Z478).
T1 sequence (Q7Z478 whole entry): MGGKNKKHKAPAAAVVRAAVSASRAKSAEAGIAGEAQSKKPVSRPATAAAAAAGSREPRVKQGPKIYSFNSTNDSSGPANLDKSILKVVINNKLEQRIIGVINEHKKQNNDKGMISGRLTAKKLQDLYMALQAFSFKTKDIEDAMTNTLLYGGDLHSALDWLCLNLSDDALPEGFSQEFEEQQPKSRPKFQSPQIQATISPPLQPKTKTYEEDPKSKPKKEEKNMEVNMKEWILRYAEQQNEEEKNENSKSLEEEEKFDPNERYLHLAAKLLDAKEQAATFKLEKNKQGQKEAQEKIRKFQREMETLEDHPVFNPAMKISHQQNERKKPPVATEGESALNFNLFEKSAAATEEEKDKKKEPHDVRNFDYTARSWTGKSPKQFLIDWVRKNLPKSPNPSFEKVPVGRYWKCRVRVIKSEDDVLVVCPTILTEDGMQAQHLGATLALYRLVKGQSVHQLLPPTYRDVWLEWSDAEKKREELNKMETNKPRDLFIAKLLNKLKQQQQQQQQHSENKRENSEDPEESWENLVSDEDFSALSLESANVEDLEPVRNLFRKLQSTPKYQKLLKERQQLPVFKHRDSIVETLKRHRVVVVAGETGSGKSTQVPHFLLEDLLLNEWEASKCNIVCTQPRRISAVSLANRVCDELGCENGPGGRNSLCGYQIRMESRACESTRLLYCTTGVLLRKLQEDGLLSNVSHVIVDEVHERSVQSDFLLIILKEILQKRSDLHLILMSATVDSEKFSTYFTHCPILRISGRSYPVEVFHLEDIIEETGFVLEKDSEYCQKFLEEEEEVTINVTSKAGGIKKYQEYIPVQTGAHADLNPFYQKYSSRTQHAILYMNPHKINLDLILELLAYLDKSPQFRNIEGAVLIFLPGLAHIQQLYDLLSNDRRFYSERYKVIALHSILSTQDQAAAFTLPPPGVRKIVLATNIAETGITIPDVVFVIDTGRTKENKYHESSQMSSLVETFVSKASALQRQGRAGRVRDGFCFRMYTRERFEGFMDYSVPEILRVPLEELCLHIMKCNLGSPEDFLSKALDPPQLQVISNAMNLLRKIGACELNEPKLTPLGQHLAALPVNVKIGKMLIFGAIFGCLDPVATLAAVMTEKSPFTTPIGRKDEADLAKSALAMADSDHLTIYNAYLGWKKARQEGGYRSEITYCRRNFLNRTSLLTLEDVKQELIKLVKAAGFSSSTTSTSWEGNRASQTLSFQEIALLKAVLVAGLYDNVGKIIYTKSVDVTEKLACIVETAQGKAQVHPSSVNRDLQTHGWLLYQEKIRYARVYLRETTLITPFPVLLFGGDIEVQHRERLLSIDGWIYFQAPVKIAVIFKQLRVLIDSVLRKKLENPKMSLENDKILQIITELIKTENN
The method, then:
as §1

Assay [4] concerns the target Eukaryotic initiation factor 4A-II (Homo sapiens, UniProt Q14240). The method, then:
as §1

For assay [5], the target named is Eukaryotic initiation factor 4A-I (Homo sapiens, UniProt P60842). The protocol:
as §1

Sequence of Eukaryotic initiation factor 4A-II (Q14240 whole entry): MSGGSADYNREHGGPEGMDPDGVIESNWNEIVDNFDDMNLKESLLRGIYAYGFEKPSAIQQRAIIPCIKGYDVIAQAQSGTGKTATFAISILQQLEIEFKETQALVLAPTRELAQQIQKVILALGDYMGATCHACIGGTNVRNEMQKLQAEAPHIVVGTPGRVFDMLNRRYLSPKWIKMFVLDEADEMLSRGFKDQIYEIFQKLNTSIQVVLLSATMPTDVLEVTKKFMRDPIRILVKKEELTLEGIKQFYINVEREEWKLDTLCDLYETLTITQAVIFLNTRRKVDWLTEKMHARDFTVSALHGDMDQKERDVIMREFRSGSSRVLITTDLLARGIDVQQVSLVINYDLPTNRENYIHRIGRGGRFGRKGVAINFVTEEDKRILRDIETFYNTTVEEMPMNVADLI
Sequence of Eukaryotic initiation factor 4A-III (P38919 whole entry): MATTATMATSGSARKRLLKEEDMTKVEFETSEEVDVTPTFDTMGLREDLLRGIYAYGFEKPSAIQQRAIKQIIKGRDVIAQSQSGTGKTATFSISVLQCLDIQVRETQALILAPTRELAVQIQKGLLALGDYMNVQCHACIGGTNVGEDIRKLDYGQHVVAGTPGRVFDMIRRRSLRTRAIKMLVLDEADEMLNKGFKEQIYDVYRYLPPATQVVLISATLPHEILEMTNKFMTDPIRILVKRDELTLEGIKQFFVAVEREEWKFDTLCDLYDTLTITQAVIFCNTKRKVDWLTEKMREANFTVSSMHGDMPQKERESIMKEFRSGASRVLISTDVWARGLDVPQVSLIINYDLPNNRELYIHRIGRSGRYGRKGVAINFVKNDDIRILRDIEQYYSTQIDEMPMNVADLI
Sequence of Eukaryotic initiation factor 4A-I (P60842 whole entry): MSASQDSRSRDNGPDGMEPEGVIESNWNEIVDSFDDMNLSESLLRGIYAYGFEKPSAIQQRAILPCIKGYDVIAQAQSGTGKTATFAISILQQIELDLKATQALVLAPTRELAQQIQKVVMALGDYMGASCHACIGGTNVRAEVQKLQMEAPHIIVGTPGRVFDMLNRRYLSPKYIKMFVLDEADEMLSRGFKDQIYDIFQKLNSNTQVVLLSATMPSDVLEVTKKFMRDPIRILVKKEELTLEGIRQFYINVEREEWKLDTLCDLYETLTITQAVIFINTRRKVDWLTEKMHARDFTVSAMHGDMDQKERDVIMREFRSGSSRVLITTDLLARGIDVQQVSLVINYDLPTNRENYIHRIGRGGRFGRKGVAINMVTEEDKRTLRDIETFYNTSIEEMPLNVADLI
Sequence of U5 small nuclear ribonucleoprotein 200 kDa helicase (O75643 whole entry): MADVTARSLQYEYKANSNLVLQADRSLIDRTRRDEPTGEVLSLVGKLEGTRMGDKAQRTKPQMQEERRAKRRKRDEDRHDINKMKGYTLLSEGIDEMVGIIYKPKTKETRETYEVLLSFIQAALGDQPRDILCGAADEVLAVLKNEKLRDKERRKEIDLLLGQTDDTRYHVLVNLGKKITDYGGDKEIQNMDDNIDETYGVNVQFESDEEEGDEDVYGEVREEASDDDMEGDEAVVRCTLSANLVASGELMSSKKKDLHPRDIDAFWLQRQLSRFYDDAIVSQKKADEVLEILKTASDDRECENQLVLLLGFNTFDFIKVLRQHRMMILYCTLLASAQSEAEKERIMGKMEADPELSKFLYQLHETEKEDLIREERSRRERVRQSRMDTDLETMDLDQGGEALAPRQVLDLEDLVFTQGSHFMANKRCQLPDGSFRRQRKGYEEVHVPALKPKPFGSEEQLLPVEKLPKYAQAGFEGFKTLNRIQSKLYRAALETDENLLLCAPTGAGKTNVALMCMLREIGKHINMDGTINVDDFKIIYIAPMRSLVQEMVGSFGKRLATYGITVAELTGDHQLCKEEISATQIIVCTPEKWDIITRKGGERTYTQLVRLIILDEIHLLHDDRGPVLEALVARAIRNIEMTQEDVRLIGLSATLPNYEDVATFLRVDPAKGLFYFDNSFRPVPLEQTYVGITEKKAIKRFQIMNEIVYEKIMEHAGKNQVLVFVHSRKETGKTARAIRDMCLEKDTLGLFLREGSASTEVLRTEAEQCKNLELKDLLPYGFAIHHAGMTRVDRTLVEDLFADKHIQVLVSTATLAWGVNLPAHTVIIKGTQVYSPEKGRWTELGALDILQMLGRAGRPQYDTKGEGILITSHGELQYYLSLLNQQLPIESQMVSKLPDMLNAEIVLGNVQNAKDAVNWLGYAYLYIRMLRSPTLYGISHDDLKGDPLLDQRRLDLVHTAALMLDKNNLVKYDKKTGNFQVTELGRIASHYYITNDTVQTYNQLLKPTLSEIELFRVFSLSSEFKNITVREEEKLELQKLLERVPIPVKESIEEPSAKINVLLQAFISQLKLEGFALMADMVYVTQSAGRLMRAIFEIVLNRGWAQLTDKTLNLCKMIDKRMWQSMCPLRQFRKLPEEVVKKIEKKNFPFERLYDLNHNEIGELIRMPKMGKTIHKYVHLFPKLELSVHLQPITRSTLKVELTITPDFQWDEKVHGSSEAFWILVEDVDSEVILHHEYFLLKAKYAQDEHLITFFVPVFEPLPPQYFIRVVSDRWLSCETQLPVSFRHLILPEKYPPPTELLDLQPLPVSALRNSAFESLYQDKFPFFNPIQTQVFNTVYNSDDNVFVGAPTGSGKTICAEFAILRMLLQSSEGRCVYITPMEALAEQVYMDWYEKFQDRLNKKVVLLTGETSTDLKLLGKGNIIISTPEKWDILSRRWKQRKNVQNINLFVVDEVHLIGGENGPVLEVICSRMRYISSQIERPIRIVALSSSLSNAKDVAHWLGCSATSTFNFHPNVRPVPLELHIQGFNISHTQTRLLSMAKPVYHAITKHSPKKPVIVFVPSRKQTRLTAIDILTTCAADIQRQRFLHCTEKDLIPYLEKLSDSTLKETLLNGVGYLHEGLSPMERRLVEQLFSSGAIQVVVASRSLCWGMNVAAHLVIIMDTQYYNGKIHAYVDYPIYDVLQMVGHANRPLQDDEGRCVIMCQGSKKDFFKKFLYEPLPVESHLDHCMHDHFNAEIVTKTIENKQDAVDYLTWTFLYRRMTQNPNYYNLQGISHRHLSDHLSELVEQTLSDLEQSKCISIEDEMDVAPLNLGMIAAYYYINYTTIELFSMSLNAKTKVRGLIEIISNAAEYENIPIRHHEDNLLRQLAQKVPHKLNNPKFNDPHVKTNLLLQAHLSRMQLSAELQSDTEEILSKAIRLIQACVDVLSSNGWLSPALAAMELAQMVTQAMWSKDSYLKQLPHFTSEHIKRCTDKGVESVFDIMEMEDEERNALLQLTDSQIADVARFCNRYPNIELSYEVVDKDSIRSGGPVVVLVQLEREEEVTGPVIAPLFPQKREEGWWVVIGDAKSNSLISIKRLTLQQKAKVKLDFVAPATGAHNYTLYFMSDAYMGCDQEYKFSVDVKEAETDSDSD

For the molecule `O=C(c1cnn2cc(Br)ccc12)N1CCN(C(=O)c2ccc(Br)cc2)[C@@H](c2ccc(Cl)cc2)C1` [eIF4A3 inhibitor, 2], the concentration for half-maximal inhibition (IC50) in assay [1] was more than 100 µM; in assay [2], 0.11 µM; in assay [3] it was more than 100 µM; in assay [4], more than 100 µM; in assay [5], more than 100 µM.
